This is an account of results in ChEMBL document CHEMBL1121882, “Approaches to vasodilating/beta-adrenergic blocking agents: examples of the dihydrolutidine type” (1981).

Experiment [1] has as its system Rattus norvegicus. Put plainly: Compound was tested for effect on arterial pressure in spontaneously hypertensive rats (SHR) at 1.25 mg/kg, po. The format is functional, Artery.
The test system of experiment [2] is Rattus norvegicus. Put plainly: Compound was tested for effect on arterial pressure in spontaneously hypertensive rats (SHR) at 20 mg/kg, po. The format is functional, Artery.
Experiment [3] deals with Rattus norvegicus. Put plainly: Compound was tested for effect on arterial pressure in spontaneously hypertensive rats (SHR) at 20 mg/kg administered intraperitoneally. The class given is functional, Artery. As to conditions: route intraperitoneal.
For experiment [4], the system named is Rattus norvegicus. Put plainly: Compound was tested for effect on arterial pressure in spontaneously hypertensive rats (SHR) at 5 mg/kg, po. The class given is functional, Artery.
For experiment [5], the system named is Rattus norvegicus. Put plainly: Compound was tested for effect on arterial pressure in spontaneously hypertensive rats (SHR) at 20 mg/kg administered intraperitoneally; Death. As to conditions: Artery. Set-up: dose 20 mg/kg. The format is functional, organism-based.

For `CC(C)(C)NC[C@H](O)COc1nsnc1N1CCOCC1` [TIMOLOL], in the experiment with Rattus norvegicus [1], the “Max fall in MAP” value is given as -1 mmHg.
For `CCOC(=O)C1=C(C)N=C(C)/C(=C(/O)OCC)C1c1ccccc1OCC(O)CNC(C)(C)C` (stereo not given), the “Max fall in MAP” value in the experiment with Rattus norvegicus [2] was 16 mmHg; with Rattus norvegicus [3] it was 15 mmHg.
`CC(C)NCC(O)COc1cccc2ccccc12` (stereo not given) [PROPRANOLOL]: in the experiment with Rattus norvegicus [4], the “Max fall in MAP” value came to 7 mmHg.
For the compound `CCOC(=O)C1=C(C)N=C(C)/C(=C(/O)OCC)C1c1ccc(OCC(O)CNC(C)(C)C)cc1` (stereo not given), the “Max fall in MAP” value in the experiment with Rattus norvegicus [5] is “Death”; with Rattus norvegicus [4], 17 mmHg.
Take `CCOC(=O)C1=C(C)N=C(C)/C(=C(/O)OCC)C1c1ccccc1C(F)(F)F` (stereo not given): the “Max fall in MAP” value in the experiment with Rattus norvegicus [4] is 41 mmHg.
Regarding `CCOC(=O)C1=C(C)N=C(C)/C(=C(/O)OCC)C1c1ccc(OCC(O)CNC(C)(C)C)cc1C` (stereo not given), the “Max fall in MAP” value in the experiment on Rattus norvegicus [5] was “Death”; in the experiment on Rattus norvegicus [1] it was 12 mmHg; in the experiment with Rattus norvegicus [4], 42 mmHg.
